From patent US20210045385A1, “PYRIDAZINONE-SUBSTITUTED KETOXIMES AS HERBICIDES” (FMC Corporation, priority 2018, published 2021)

Legend:
Format in all cases: in vivo
[1] = test system: ragweed (common ragweed, Ambrosia artemisiifolia); test: Test C preemergence, visual plant response rating
Summary of the method: (§1)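 Compounds in a non-phytotoxic solvent with surfactant were applied as a directed soil spray preemergence or to 2–10 cm, one- to two-leaf plants postemergence, in loam–sand soil. After about 10 d in a greenhouse, injury was visually rated against untreated controls on a 0–100 scale (100 = complete control).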

kochia (Bassia scoparia) [2] = test: Test C preemergence, visual plant response rating
Summary of the method: as §1

[3] = test system: pigweed (Amaranthus retroflexus); test: Test C preemergence, visual plant response rating
Summary of the method: as §1

[4] = test system: foxtail, giant (giant foxtail, Setaria faberi); test: Test C preemergence, visual plant response rating
Summary of the method: as §1

[5] = test system: Italian ryegrass (Lolium mutiflorum); test: Test C preemergence, visual plant response rating
Summary of the method: as §1

[6] = test system: barnyardgrass (Echinochloa crus-galli); test: Test C preemergence, visual plant response rating
Summary of the method: as §1

[7] = test system: duck salad (Heteranthera limosa); test: Test D flooded paddy test, visual plant response rating; conditions: 250 g ai/ha, scale 0 to 100 (0 no effect, 100 complete control), 13 to 15 d
Summary of the method: (§2)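 Plants were grown to the 2-leaf stage, pots flooded to 3 cm above soil, and compound applied directly into the paddy water, with the depth held throughout. After 13 to 15 d in a greenhouse, response was rated visually against untreated controls on a 0–100 scale (0 no effect, 100 complete control).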

[8] = test system: sedge umbrella (small-flower umbrella sedge, Cyperus difformis); test: as above; conditions: 250 g ai/ha, scale 0 to 100 (0 no effect, 100 complete control), 13 to 15 d
Summary of the method: as §2

rice (Oryza sativa) = test: as above; conditions: 250 g ai/ha, scale 0 to 100 (0 no effect, 100 complete control), 13 to 15 d
Summary of the method: as §2

[9] = test system: barnyardgrass (Echinochloa crus-galli); test: as above; conditions: 250 g ai/ha, scale 0 to 100 (0 no effect, 100 complete control), 13 to 15 d
Summary of the method: as §2

[10] = test system: wheat (Triticum aestivum); test: Test C postemergence, visual plant response rating
Summary of the method: as §1

[11] = test system: ragweed (common ragweed, Ambrosia artemisiifolia); test: Test C postemergence, visual plant response rating
Summary of the method: as §1

kochia (Bassia scoparia) [12] = test: Test C postemergence, visual plant response rating
Summary of the method: as §1

[13] = test system: pigweed (Amaranthus retroflexus); test: Test C postemergence, visual plant response rating
Summary of the method: as §1

[14] = test system: galium (catchweed bedstraw, Galium aparine); test: Test C postemergence, visual plant response rating
Summary of the method: as §1

[15] = test system: foxtail, giant (giant foxtail, Setaria faberi); test: Test C postemergence, visual plant response rating
Summary of the method: as §1

[16] = test system: Italian ryegrass (Lolium mutiflorum); test: Test C postemergence, visual plant response rating
Summary of the method: as §1

[17] = test system: blackgrass (Alopecurus myosuroides); test: Test C postemergence, visual plant response rating
Summary of the method: as §1

corn (Zea mays) = test: Test C postemergence, visual plant response rating
Summary of the method: as §1

[18] = test system: barnyardgrass (Echinochloa crus-galli); test: Test C postemergence, visual plant response rating
Summary of the method: as §1

[19] = Test C, 31 g ai/ha, 0 is no effect, 100 is complete control
[20] = Test C, postemergence, 125 g ai/ha

| Structure (SMILES) | Ragweed plant response rating (0 to 100 scale) ([1]; 125 g ai/ha) | Ragweed plant response rating (0 to 100 scale) [1, 19] | Kochia plant response rating (0 to 100 scale) (kochia (Bassia scoparia) [2]; 125 g ai/ha) | Kochia plant response rating (0 to 100 scale) (kochia (Bassia scoparia) [2]; [19]) | Pigweed plant response rating (0 to 100 scale) ([3]; 125 g ai/ha) | Pigweed plant response rating (0 to 100 scale) [3, 19] | Foxtail, Giant plant response rating (0 to 100 scale) ([4]; 125 g ai/ha) | Foxtail, Giant plant response rating (0 to 100 scale) [4, 19] | Ryegrass, Italian plant response rating (0 to 100 scale) ([5]; 125 g ai/ha) | Ryegrass, Italian plant response rating (0 to 100 scale) [5, 19] | Barnyardgrass plant response rating (0 to 100 scale) ([6]; 125 g ai/ha) | Barnyardgrass plant response rating (0 to 100 scale) [6, 19] | Plant response rating, Ducksalad (Flood) [7] | Plant response rating, Sedge, Umbrella (Flood) [8] | Plant response rating, Rice (Flood) (rice (Oryza sativa)) | Plant response rating, Barnyardgrass (Flood) [9] | Wheat plant response rating (0 to 100 scale) ([10]; Postemergence, 31 g ai/ha) | Wheat plant response rating (0 to 100 scale) [10, 20] | Ragweed plant response rating (0 to 100 scale) ([11]; Postemergence, 31 g ai/ha) | Ragweed plant response rating (0 to 100 scale) [11, 20] | further results |
| --- | --- | --- | --- | --- | --- | --- | --- | --- | --- | --- | --- | --- | --- | --- | --- | --- | --- | --- | --- | --- | --- |
| CO/N=C(/c1c(O)c(C)nn(C)c1=O)c1cccc2cc(Cl)ccc12 [Compound 159] | 90 | 70 | 20 | 0 | 40 | 30 | 50 | 0 | 80 | 0 | 40 | 40 | 0 | 0 | 0 | 0 | 0 | 10 | 70 | 90 | Kochia plant response rating (0 to 100 scale) (kochia (Bassia scoparia) [12]; Postemergence, 31 g ai/ha): 70; Kochia plant response rating (0 to 100 scale) (kochia (Bassia scoparia) [12]; [20]): 80; Pigweed plant response rating (0 to 100 scale) ([13]; Postemergence, 31 g ai/ha): 90; Pigweed plant response rating (0 to 100 scale) [13, 20]: 100; Galium plant response rating (0 to 100 scale) ([14]; Postemergence, 31 g ai/ha): 60; Galium plant response rating (0 to 100 scale) [14, 20]: 80; Foxtail, Giant plant response rating (0 to 100 scale) ([15]; Postemergence, 31 g ai/ha): 50; Foxtail, Giant plant response rating (0 to 100 scale) [15, 20]: 70; Ryegrass, Italian plant response rating (0 to 100 scale) ([16]; Postemergence, 31 g ai/ha): 20; Ryegrass, Italian plant response rating (0 to 100 scale) [16, 20]: 80; Blackgrass plant response rating (0 to 100 scale) ([17]; Postemergence, 31 g ai/ha): 10; Blackgrass plant response rating (0 to 100 scale) [17, 20]: 30; Corn plant response rating (0 to 100 scale) (corn (Zea mays); Postemergence, 31 g ai/ha): 10; Corn plant response rating (0 to 100 scale) (corn (Zea mays); [20]): 30; Barnyardgrass plant response rating (0 to 100 scale) ([18]; Postemergence, 31 g ai/ha): 40; Barnyardgrass plant response rating (0 to 100 scale) [18, 20]: 60 |
| C#CCON=C(c1ccc(Cl)c(Cl)c1)c1c(O)c(C)nn(C)c1=O [Compound 178] | 40 | 0 | 0 | 0 | 70 | 20 | 60 | 10 | 70 | 0 | 50 | 30 | 0 | 0 | 0 | 0 | 0 | 80 | 0 | 40 | Kochia plant response rating (0 to 100 scale) (kochia (Bassia scoparia) [12]; Postemergence, 31 g ai/ha): 40; Kochia plant response rating (0 to 100 scale) (kochia (Bassia scoparia) [12]; [20]): 70; Pigweed plant response rating (0 to 100 scale) ([13]; Postemergence, 31 g ai/ha): 20; Pigweed plant response rating (0 to 100 scale) [13, 20]: 40; Galium plant response rating (0 to 100 scale) ([14]; Postemergence, 31 g ai/ha): 40; Galium plant response rating (0 to 100 scale) [14, 20]: 80; Foxtail, Giant plant response rating (0 to 100 scale) ([15]; Postemergence, 31 g ai/ha): 10; Foxtail, Giant plant response rating (0 to 100 scale) [15, 20]: 30; Ryegrass, Italian plant response rating (0 to 100 scale) ([16]; Postemergence, 31 g ai/ha): 20; Ryegrass, Italian plant response rating (0 to 100 scale) [16, 20]: 90; Blackgrass plant response rating (0 to 100 scale) ([17]; Postemergence, 31 g ai/ha): 0; Blackgrass plant response rating (0 to 100 scale) [17, 20]: 30; Corn plant response rating (0 to 100 scale) (corn (Zea mays); Postemergence, 31 g ai/ha): 0; Corn plant response rating (0 to 100 scale) (corn (Zea mays); [20]): 10; Barnyardgrass plant response rating (0 to 100 scale) ([18]; Postemergence, 31 g ai/ha): 20; Barnyardgrass plant response rating (0 to 100 scale) [18, 20]: 50 |
